Source: patent US12208130B2, “Treatment of women affected with polycystic ovary syndrome” (INSTITUT NATIONAL DE LA SANTE ET DE LA RECHERCHE MEDICALE …, priority 2017, dated 2025)
Where a SMILES comes first, the peptide text is derived from it. [ ]: non-standard residue; d: D form. dPhe(4-Cl) = N[C@H](Cc1ccc(Cl)cc1)C(=O)O; d2Nal = N[C@H](Cc1ccc2ccccc2c1)C(=O)O; dCit = NC(=O)NCCC[C@@H](N)C(=O)O; d3Pal = N[C@H](Cc1cccnc1)C(=O)O

Experiments:
[1] = Cetrorelix measurement in maternal and fetal brain (nano-HPLC-HRMS); format: in vivo, mouse; details: dams i.p. 0.5 mg/Kg E16.5-E18.5; brains at E19.5
Protocol: Timed-pregnant adult (3-4 months) C57BL6/J (B6) (Charles River, USA) dams were injected daily intraperitoneally (i.p.) from embryonic day (E) 16.5 to 18.5 with 200 μL of a solution containing respectively: 1) 0.01M phosphate buffered saline (PBS, pH 7.4, prenatal control-treated), 2) PBS with 0.5 mg Kg^−1 of the GnRH antagonist, cetrorelix acetate (Sigma, Cat #C5249; GnRH antag-treated). At E19.5, dams were anesthetized with ketamine/xylazine, and sacrificed by cervical dislocation. Dams' brains and fetal brains were collected, snap-frozen in liquid nitrogen and stored at −80° C. until nano-HPLC-HRMS experiments.
Murine maternal and embryo brain samples were prepared adapting the procedure described (Wang et al., 2014, Vol. 1345: 98-106). Briefly, the brains were weighted, homogenized with 1% formic acid in cold acetonitrile and incubated for 15 minutes at −20° C. After centrifugation, the supernatant was freeze-dried and reconstituted with 3% acetic acid and 1% trifluoroacetic acid (TFA). all of the solvents were from Sigma-Aldrich Merck (Milan, Italy). […]
The column was equipped with a nanoESl source and the capillary voltage was 2000 V in positive ion mode. […] High resolution spectra were acquired with a resolution of 60000 (FWHM) and the mass accuracy of recorded ions (vs. calculated) was ±5 ppm units (without internal calibration).

P0 pups = assay: LH and T measurement in P0 mice; format: in vivo, mouse; details: prenatal GnRH antagonist administration with AMH
Protocol: FIGS. 4A-4C-2. Prenatal AMH treatment increases perinatal T levels in females and masculinizes their brain. (FIG. 4A) Plasma T and LH levels were measured in pups 2 hours after birth (males, n=5; control females, n=5; PAMH females, n=4; PAMH females+GnRH antag, n=6). (FIG. 4B) TH immunoreactive (-ir) neurons in the AVPV were quantified in these animal groups (n=3 per sex and treatment). The number of AVPV TH-ir neurons are represented as the mean±s.e.m. (One-way ANOVA and Tukey's multiple comparisons post-hoc test, F(2,6)=231.1, ***P<0.0001). In FIG. 4B: left bar: male; middle bar: control female; right bar: PAMH female. (FIGS. 4C-1, 4C-2)
For the analysis of circulating LH and T levels, animals were decapitated and trunk blood from adult (P60) animals and P0 pups (1-2 hrs after birth) were collected in sterile Eppendorf tubes and left on ice until centrifugation. Plasma was collected and stored at −80° C. until use. LH levels were determined by a sandwich ELISA, as described previously (Vidal et al., 2012, PloS one, Vol. 7: e39001), using the mouse LH-RP reference provided by A. F. Parlow (National Hormone and Pituitary Program, Torrance, CA). Plasma T levels were analyzed using a commercial ELISA (Demeditec Diagnostics, GmnH, DEV9911) (Moore et al., 2015, Proc Natl Acad Sci USA, Vol. 112: 596-601) according to the manufacturers' instructions. […]

CC(=O)N[C@H](Cc1ccc2ccccc2c1)C(=O)N[C@H](Cc1ccc(Cl)cc1)C(=O)N[C@H](Cc1cccnc1)C(=O)N[C@@H](CO)C(=O)N[C@@H](Cc1ccc(O)cc1)C(=O)N[C@H](CCCNC(N)=O)C(=O)N[C@@H](CC(C)C)C(=O)N[C@@H](CCCNC(=N)N)C(=O)N1CCC[C@H]1C(=O)N[C@H](C)C(N)=O [Cetrorelix acetate, Ac-D-2Nal-D-Phe(4-Cl)-D-3Pal-Ser-Tyr-D-Cit-Leu-Arg-Pro-D-Ala-NH2] (Ac-[d2Nal][dPhe(4-Cl)][d3Pal]SY[dCit]LRP[dA]-NH2)
access to maternal and fetal brain [1]: can access the maternal as well as the fetal brain | neonatal T and LH surges of PAMH female pups (P0 pups): corrected
